This series in a line: MTT colorimetric assay, dose response, cell viability. Format: cell-based. The note with it: human, HaCat cells, untreated = 100. On the procedure: An MTT colorimetric assay (HaCat Cells) dose response experiment was conducted to analyze cell viability, or the percentage of cells present after treatment. Particularly, the MTT colorimetric assay was conducted to determine cell viability of the anhydrous 2:1 urea to taurine ionic liquid (2) of Example 1 in comparison to taurine. The HaCat Cells were 60-70% confluent, and a PBS buffer was used for serial volumetric dilutions. The results of the MTT colorimetric assay are summarized in Table 6, and highlight the effectiveness of the ionic liquid form. Cell viability greater than 100% indicates cell growth or proliferation, and cell viability less than 100% indicates cell death.
Background: Tetrazolium assays rely on reduction of a dye to a coloured formazan, in cell work by metabolically active cells.

The structures appear in SMILES notation.

With `NCCS(=O)(=O)O` [Taurine, 2-aminoethanesulfonic acid], the viability (as a rule, a read-out of living cells in per cent, often relative to untreated cells) at 1e-05 w/w % (concentration of taurine 0.00001 w/w %) was determined as 137%. The viability at 0.0001 w/w % (concentration of taurine 0.00010 w/w %) is 120%. Further, where the note is “concentration of taurine 0.00100 w/w %”, the viability at 0.001 w/w % turned out to be 141%. Further, the viability at 0.01 w/w % (concentration of taurine 0.01000 w/w %) was found to be 147%. Also, the viability at 0.1 w/w % (concentration of taurine 0.10000 w/w %) stood at 99%.
